Data: ChEMBL document CHEMBL1201862, “PubChem BioAssay data set” (2004)
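Step 1: Grow cells in 96-well plates. Step 2: Expose to compound for 48 hours at 5 concentrations. Step 3: Interpolate endpoints linearly; if unreached, use highest concentration. At the GI50, growth is halved.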 Active and inactive are the calls of the source. No stated cut-off is given here; in the data, active = GI50 up to about 1.1 µM and inactive = higher.

Key:
Assay in all cases: NCI-60 cell line screen, 48 h
CCRF-CEM = system: CCRF-CEM
IGROV-1 = system: IGROV-1
SK-MEL-5 = system: SK-MEL-5
786-0 = system: 786-0
RXF 393 = system: RXF 393
NCI/ADR-RES = system: NCI/ADR-RES
U-251 = system: U-251
M14 = system: M14
K562 = system: K562
OVCAR-5 = system: OVCAR-5
SK-MEL-28 = system: SK-MEL-28
SF-295 = system: SF-295
HCC 2998 = system: HCC 2998
MDA-MB-231 = system: MDA-MB-231
OVCAR-3 = system: OVCAR-3
NCI-H460 = system: NCI-H460
SF-268 = system: SF-268
HT-29 = system: HT-29
HOP-92 = system: HOP-92
NCI-H23 = system: NCI-H23
UO-31 = system: UO-31
SK-OV-3 = system: SK-OV-3
COLO 205 = system: COLO 205
PC-3 = system: PC-3
SN12C = system: SN12C
SF-539 = system: SF-539
MDA-MB-435 = system: MDA-MB-435
OVCAR-8 = system: OVCAR-8
BT-549 = system: BT-549
HCT-15 = system: HCT-15
SNB-75 = system: SNB-75
UACC-257 = system: UACC-257
A549 = system: A549
MOLT-4 = system: MOLT-4
Malme-3M = system: Malme-3M
MCF7 = system: MCF7
NCI-H226 = system: NCI-H226
TK-10 = system: TK-10
SK-MEL-2 = system: SK-MEL-2
LOX IMVI = system: LOX IMVI
MDA-N = system: MDA-N
NCI-H522 = system: NCI-H522
UACC-62 = system: UACC-62
Hs-578T = system: Hs-578T
SNB-19 = system: SNB-19
KM12 = system: KM12
SW-620 = system: SW-620
EKVX = system: EKVX
ACHN = system: ACHN
RPMI-8226 = system: RPMI-8226
A498 = system: A498
OVCAR-4 = system: OVCAR-4
HOP-62 = system: HOP-62
T47D = system: T47D
CAKI-1 = system: CAKI-1
HL-60 = system: HL-60
DU-145 = system: DU-145
HCT-116 = system: HCT-116
SR = system: SR

## C[C@]12CC[C@H]3[C@@H](CCC4=CC(=O)CC[C@@]43C)[C@@H]1CC[C@@H]2OC(=O)c1cccc2c(=O)c3ccccc3[nH]c12
CCRF-CEM
  GI50: 58.1 µM (inactive)
IGROV-1
  GI50: > 100 µM (inactive)
SK-MEL-5
  GI50: 37.4 µM (inactive)
786-0
  GI50: 20.3 µM (inactive)
RXF 393
  GI50: 75.7 µM (inactive)
NCI/ADR-RES
  GI50: 64 µM (inactive)
U-251
  GI50: 61.2 µM (inactive)
M14
  GI50: > 100 µM (inactive)
K562
  GI50: 16.3 µM (inactive)
OVCAR-5
  GI50: > 100 µM (inactive)
SK-MEL-28
  GI50: > 100 µM (inactive)
SF-295
  GI50: > 100 µM (inactive)
HCC 2998
  GI50: 25.2 µM (inactive)
MDA-MB-231
  GI50: > 100 µM (inactive)
OVCAR-3
  GI50: > 100 µM (inactive)
NCI-H460
  GI50: 46.8 µM (inactive)
SF-268
  GI50: 18.2 µM (inactive)
HT-29
  GI50: 43.8 µM (inactive)
HOP-92
  GI50: 84.5 µM (inactive)
NCI-H23
  GI50: > 100 µM (inactive)
UO-31
  GI50: > 100 µM (inactive)
SK-OV-3
  GI50: 58.5 µM (inactive)
COLO 205
  GI50: > 100 µM (inactive)
PC-3
  GI50: 44.4 µM (inactive)
SN12C
  GI50: > 100 µM (inactive)
SF-539
  GI50: > 100 µM (inactive)
MDA-MB-435
  GI50: 43.2 µM (inactive)
OVCAR-8
  GI50: > 100 µM (inactive)
BT-549
  GI50: 58.1 µM (inactive)
HCT-15
  GI50: 37.6 µM
SNB-75
  GI50: 13.9 µM (inactive)
UACC-257
  GI50: 99.5 µM (inactive)
A549
  GI50: > 100 µM (inactive)
MOLT-4
  GI50: 32.1 µM (inactive)
Malme-3M
  GI50: 47.3 µM (inactive)
MCF7
  GI50: > 100 µM (inactive)
NCI-H226
  GI50: 75.3 µM (inactive)
TK-10
  GI50: > 100 µM (inactive)
SK-MEL-2
  GI50: > 100 µM (inactive)
LOX IMVI
  GI50: 26.9 µM (inactive)
MDA-N
  GI50: 42.1 µM (inactive)
NCI-H522
  GI50: > 100 µM (inactive)
UACC-62
  GI50: 29.4 µM (inactive)
Hs-578T
  GI50: 12.1 µM (inactive)
SNB-19
  GI50: > 100 µM (inactive)
KM12
  GI50: 37.2 µM (inactive)
SW-620
  GI50: > 100 µM (inactive)
EKVX
  GI50: 7.57 µM (inactive)
ACHN
  GI50: > 100 µM (inactive)
RPMI-8226
  GI50: 24.3 µM (inactive)
A498
  GI50: > 100 µM (inactive)
OVCAR-4
  GI50: 54.7 µM (inactive)
HOP-62
  GI50: 63.5 µM (inactive)
T47D
  GI50: 57.3 µM (inactive)

## CNc1nncc2[nH]cnc12
CCRF-CEM
  GI50: > 100 µM (inactive)
IGROV-1
  GI50: > 100 µM (inactive)
SK-MEL-5
  GI50: > 100 µM (inactive)
786-0
  GI50: > 100 µM (inactive)
RXF 393
  GI50: > 100 µM (inactive)
U-251
  GI50: > 100 µM (inactive)
SK-MEL-28
  GI50: > 100 µM (inactive)
CAKI-1
  GI50: > 100 µM (inactive)
MDA-MB-231
  GI50: > 100 µM (inactive)
SF-268
  GI50: > 100 µM (inactive)
HT-29
  GI50: > 100 µM (inactive)
HOP-92
  GI50: > 100 µM (inactive)
UO-31
  GI50: > 100 µM (inactive)
SK-OV-3
  GI50: > 100 µM (inactive)
COLO 205
  GI50: > 100 µM (inactive)
SN12C
  GI50: > 100 µM (inactive)
HL-60
  GI50: 32.4 µM (inactive)
MDA-MB-435
  GI50: > 100 µM (inactive)
OVCAR-8
  GI50: > 100 µM (inactive)
BT-549
  GI50: > 100 µM (inactive)
HCT-15
  GI50: > 100 µM
SNB-75
  GI50: > 100 µM (inactive)
UACC-257
  GI50: > 100 µM (inactive)
MOLT-4
  GI50: > 100 µM (inactive)
MCF7
  GI50: > 100 µM (inactive)
TK-10
  GI50: > 100 µM (inactive)
LOX IMVI
  GI50: > 100 µM (inactive)
MDA-N
  GI50: > 100 µM (inactive)
UACC-62
  GI50: > 100 µM (inactive)
DU-145
  GI50: > 100 µM (inactive)
Hs-578T
  GI50: > 100 µM (inactive)
SNB-19
  GI50: > 100 µM (inactive)
KM12
  GI50: > 100 µM (inactive)
SW-620
  GI50: > 100 µM (inactive)
EKVX
  GI50: > 100 µM (inactive)
ACHN
  GI50: > 100 µM (inactive)
RPMI-8226
  GI50: > 100 µM (inactive)
HCT-116
  GI50: > 100 µM (inactive)
A498
  GI50: > 100 µM (inactive)
T47D
  GI50: > 100 µM (inactive)

## COC(=O)C(=O)C(C(=O)C(=O)Nc1ccccc1OC)c1nc2ccc([N+](=O)[O-])cc2nc1O (stereo not given)
CCRF-CEM
  GI50: > 100 µM (inactive)
IGROV-1
  GI50: 54.8 µM (inactive)
SK-MEL-5
  GI50: > 100 µM (inactive)
786-0
  GI50: > 100 µM (inactive)
RXF 393
  GI50: > 100 µM (inactive)
NCI/ADR-RES
  GI50: > 100 µM (inactive)
U-251
  GI50: > 100 µM (inactive)
M14
  GI50: > 100 µM (inactive)
K562
  GI50: > 100 µM (inactive)
OVCAR-5
  GI50: > 100 µM (inactive)
SK-MEL-28
  GI50: > 100 µM (inactive)
CAKI-1
  GI50: > 100 µM (inactive)
SF-295
  GI50: > 100 µM (inactive)
HCC 2998
  GI50: > 100 µM (inactive)
MDA-MB-231
  GI50: > 100 µM (inactive)
OVCAR-3
  GI50: > 100 µM (inactive)
NCI-H460
  GI50: 58.2 µM (inactive)
SF-268
  GI50: > 100 µM (inactive)
HT-29
  GI50: > 100 µM (inactive)
HOP-92
  GI50: > 100 µM (inactive)
UO-31
  GI50: 45.3 µM (inactive)
SK-OV-3
  GI50: > 100 µM (inactive)
PC-3
  GI50: > 100 µM (inactive)
SN12C
  GI50: > 100 µM (inactive)
SF-539
  GI50: > 100 µM (inactive)
HL-60
  GI50: > 100 µM (inactive)
MDA-MB-435
  GI50: 35.6 µM (inactive)
OVCAR-8
  GI50: > 100 µM (inactive)
BT-549
  GI50: > 100 µM (inactive)
HCT-15
  GI50: 41.4 µM
SNB-75
  GI50: > 100 µM (inactive)
UACC-257
  GI50: > 100 µM (inactive)
A549
  GI50: > 100 µM (inactive)
MOLT-4
  GI50: > 100 µM (inactive)
Malme-3M
  GI50: 83 µM (inactive)
MCF7
  GI50: > 100 µM (inactive)
NCI-H226
  GI50: > 100 µM (inactive)
TK-10
  GI50: > 100 µM (inactive)
SK-MEL-2
  GI50: > 100 µM (inactive)
LOX IMVI
  GI50: 96.2 µM (inactive)
MDA-N
  GI50: 32.7 µM (inactive)
NCI-H522
  GI50: 65.2 µM (inactive)
UACC-62
  GI50: > 100 µM (inactive)
SR
  GI50: > 100 µM (inactive)
Hs-578T
  GI50: 78.2 µM (inactive)
SNB-19
  GI50: 23.2 µM (inactive)
KM12
  GI50: 54.3 µM (inactive)
SW-620
  GI50: > 100 µM (inactive)
EKVX
  GI50: 45.5 µM (inactive)
ACHN
  GI50: > 100 µM (inactive)
RPMI-8226
  GI50: > 100 µM (inactive)
HCT-116
  GI50: > 100 µM (inactive)
A498
  GI50: > 100 µM (inactive)
OVCAR-4
  GI50: 83.8 µM (inactive)
HOP-62
  GI50: > 100 µM (inactive)
T47D
  GI50: > 100 µM (inactive)
